According to patent US20250170266A1 (ZYMEWORKS BC INC., priority 2022, published 2025):
Read-outs that look alike come from different tables or passages of the source.

Assays:
Assay type in all cases: cell-based
hTLR7 = target: T1, hTLR7 (Homo sapiens, UniProt Q9NYK1); experiment: Reporter Gene Assay (RGA), HEK-Blue hTLR7 reporter cells, SEAP readout; conditions: overnight incubation, SEAP absorbance 620 nm
T1 construct: host or cells: HEK-Blue hTLR7 reporter cells (HEK293-derived, own knowledge)
T1 sequence (Q9NYK1 27-1049): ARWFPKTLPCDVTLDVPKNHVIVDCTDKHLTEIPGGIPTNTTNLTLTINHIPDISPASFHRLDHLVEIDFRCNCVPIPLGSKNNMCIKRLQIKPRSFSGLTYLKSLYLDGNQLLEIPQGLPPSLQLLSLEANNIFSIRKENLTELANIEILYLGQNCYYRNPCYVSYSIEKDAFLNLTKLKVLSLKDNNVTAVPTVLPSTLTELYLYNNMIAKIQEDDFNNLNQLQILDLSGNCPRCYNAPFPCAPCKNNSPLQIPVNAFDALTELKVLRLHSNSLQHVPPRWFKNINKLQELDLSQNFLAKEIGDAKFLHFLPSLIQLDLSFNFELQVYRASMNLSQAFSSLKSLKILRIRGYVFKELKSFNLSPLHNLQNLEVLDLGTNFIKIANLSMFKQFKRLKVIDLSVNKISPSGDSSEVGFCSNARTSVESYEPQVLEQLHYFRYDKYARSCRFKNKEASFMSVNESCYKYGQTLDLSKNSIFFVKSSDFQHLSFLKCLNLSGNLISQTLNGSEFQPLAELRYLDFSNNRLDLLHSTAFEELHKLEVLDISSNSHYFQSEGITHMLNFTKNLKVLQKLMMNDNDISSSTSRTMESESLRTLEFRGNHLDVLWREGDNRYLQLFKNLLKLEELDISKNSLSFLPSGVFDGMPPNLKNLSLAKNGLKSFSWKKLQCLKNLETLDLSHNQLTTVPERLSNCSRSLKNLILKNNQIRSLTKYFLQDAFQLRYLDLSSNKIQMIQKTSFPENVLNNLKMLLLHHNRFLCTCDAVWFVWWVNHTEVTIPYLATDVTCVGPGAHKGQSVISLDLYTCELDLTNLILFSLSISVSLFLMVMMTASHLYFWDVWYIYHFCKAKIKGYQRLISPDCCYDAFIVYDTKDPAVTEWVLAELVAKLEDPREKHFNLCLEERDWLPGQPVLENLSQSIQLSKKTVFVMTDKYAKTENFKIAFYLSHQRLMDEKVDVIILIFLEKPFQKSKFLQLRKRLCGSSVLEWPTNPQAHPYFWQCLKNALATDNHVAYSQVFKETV
Method in brief: (§1)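 HEK-Blue reporter cells expressing human or mouse TLR7 (1.5×10^4 cells) were treated with an 11-point, 4-fold compound titration from 15 pM in HEK-Blue Detection medium. Incubation was overnight at 37° C with 5% CO2. Secreted embryonic alkaline phosphatase was read as absorbance at 620 nm.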

[1] = tested on: Human peripheral blood mononuclear cells (PBMCs); experiment: Human PBMC Assay, cytokine release (HTRF); conditions: 24 hours; for EC50: PBMC
Method in brief: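 Cryopreserved human PBMCs, rested overnight with 10 ng/ml hIL3, then 300,000 cells/well treated 24 h at 37° C with compound (4-fold, 11-point titration from 15 μM) in RPMI+10% FBS. Supernatant hIL6, hTNFα and hIFNα measured by HTRF; growth medium as negative control.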

mTLR7 = target: T2, mTLR7 (Mus musculus, UniProt P58681); experiment: Reporter Gene Assay (RGA), HEK-Blue mTLR7 reporter cells, SEAP readout; conditions: overnight incubation, SEAP absorbance 620 nm
T2 construct: host or cells: HEK-Blue mTLR7 reporter cells (HEK293-derived, own knowledge)
T2 sequence (P58681 27-1050): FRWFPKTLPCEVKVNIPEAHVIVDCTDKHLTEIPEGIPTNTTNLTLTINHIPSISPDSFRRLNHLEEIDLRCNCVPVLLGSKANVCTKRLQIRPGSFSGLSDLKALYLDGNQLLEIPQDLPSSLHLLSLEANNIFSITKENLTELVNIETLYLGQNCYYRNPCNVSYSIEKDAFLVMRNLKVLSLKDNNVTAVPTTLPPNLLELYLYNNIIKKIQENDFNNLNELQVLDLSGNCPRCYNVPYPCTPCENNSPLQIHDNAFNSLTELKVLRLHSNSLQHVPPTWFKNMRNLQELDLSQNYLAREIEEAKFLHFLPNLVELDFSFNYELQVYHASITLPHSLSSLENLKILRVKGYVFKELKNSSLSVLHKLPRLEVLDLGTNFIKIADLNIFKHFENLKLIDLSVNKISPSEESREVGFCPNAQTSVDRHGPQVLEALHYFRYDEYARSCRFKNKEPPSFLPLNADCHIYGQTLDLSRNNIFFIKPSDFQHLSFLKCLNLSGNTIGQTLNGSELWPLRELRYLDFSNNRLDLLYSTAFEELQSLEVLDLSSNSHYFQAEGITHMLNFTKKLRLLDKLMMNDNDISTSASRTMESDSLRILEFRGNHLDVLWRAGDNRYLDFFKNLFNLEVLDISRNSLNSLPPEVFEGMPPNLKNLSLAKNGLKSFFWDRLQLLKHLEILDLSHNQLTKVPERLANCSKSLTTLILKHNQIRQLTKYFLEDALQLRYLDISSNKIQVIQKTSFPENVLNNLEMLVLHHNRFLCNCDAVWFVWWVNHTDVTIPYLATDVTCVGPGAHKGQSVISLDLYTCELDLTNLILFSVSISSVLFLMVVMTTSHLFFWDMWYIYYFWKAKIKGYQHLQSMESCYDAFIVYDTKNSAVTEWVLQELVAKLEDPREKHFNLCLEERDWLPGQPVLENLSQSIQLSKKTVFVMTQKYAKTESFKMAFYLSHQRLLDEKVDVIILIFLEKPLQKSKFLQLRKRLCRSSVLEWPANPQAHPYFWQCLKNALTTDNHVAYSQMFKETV
Method in brief: as §1

Mouse splenocytes = experiment: Mouse Splenocyte Assay, cytokine release (HTRF); conditions: 24 hours, mIL6 in supernatant; for EC50: Splenocyte, read-out: Splenocyte IL6 EC50
Method in brief: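 Splenocytes from female balb/c nude mice, thawed, 100,000 per well in RPMI + 10% FBS. Exposed for 24 h at 37 °C to a 4-fold 11-point compound titration from 15 μM; supernatant mIL6 and mTNFα measured by HTRF.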

[2] = hIFNα in supernatant, EC50 values approximated and divided into groups, read-out: PBMC IFNa EC50
[3] = hIL6 in supernatant, read-out: PBMC IL6 EC50

EC50 (hTLR7) [nM] | EC50 (mTLR7) [nM] | EC50 (Mouse splenocytes) [nM] | Splenocyte IL6 EC50 (nM) (Mouse splenocytes) | Compound | EC50 [1, 2] [nM] | EC50 [1, 3] [nM] | PBMC IL6 EC50 (nM) ([1]; hIL6 in supernatant)
94 | 9 | 131 |  | CCCCCNc1nc(N)c2nc(O)n(Cc3ccc(CN4CCNCC4)cc3)c2n1 [Compound 187, 6-amino-2-(pentylamino)-9-(4-(piperazin-1-ylmethyl)benzyl)-9H-purin-8-ol] | 0.1 to 1 | 9 | 
184 | 1020 | 2180 |  | CCOc1nc(N)c2nc(O)n(Cc3ccc(CNCCC(=O)N[C@@H](Cc4c[nH]cn4)C(=O)O)cc3OC)c2n1 [Compound 116, (3-((4-((6-amino-2-ethoxy-8-hydroxy-9H-purin-9-yl)methyl)-3-methoxybenzyl)-amino)-propanoyl)-L-histidine] | > 10 | 3080 | 
351 | 26.2 | 198 |  | CCCCCNc1nc(N)c2nc(O)n(Cc3ccc(CN4CCC(N)CC4)cc3)c2n1 [Compound 188, 6-amino-9-(4-((4-aminopiperidin-1-yl)methyl)benzyl)-2-(pentylamino)-9H-purin-8-ol] | 1 to 10 | 19.6 | 
112 | 184 | ≥ 1000 |  | CCOc1nc(N)c2nc(O)n(Cc3ccc(CN4CCC(N)CC4)cc3OC)c2n1 [Compound 110, 6-amino-9-(4-((4-aminopiperidin-1-yl)methyl)-2-methoxybenzyl)-2-ethoxy-9H-purin-8-ol] | 1 to 10 | 937 | 
187 | 662 | 1180 |  | CCOc1nc(N)c2nc(O)n(Cc3ccc(CN4CCN(CCNC(=O)CC(SC[C@@H](N)C(=O)O)C(=O)O)CC4)cc3OC)c2n1 (stereo partly drawn) [Compound 113, 2-(((S)-2-amino-2-carboxyethyl)thio)-4-((2-(4-(4-((6-amino-2-ethoxy-8-hydroxy-9H-purin-9-yl)methyl)-3-methoxybenzyl)piperazin-1-yl)ethyl)amino)-4-oxobutanoic Acid] | > 10 | 1360 | 
1310 | 1040 | 1360 |  | CCOc1nc(N)c2nc(O)n(Cc3ccc(CNCCCN4CCN(CCCN)CC4)cc3OC)c2n1 [Compound 104, 6-amino-9-(4-(((3-(4-(3-aminopropyl)piperazin-1-yl)propyl)amino)methyl)-2-methoxybenzyl)-2-ethoxy-9H-purin-8-ol] | > 10 | 598 | 
138 | 27.4 | 1330 |  | CCOc1nc(N)c2nc(O)n(Cc3ccc(CNCCCCCO)cc3OC)c2n1 [Compound 103, 6-amino-2-ethoxy-9-(4-(((5-hydroxypentyl)amino)methyl)-2-methoxy-benzyl)-9H-purin-8-ol] | 0.1 to 1 | 9270 | 
1420 | 80.8 | 106 |  | CCCCCNc1nc(N)c2nc(O)n(Cc3ccc(CNCCCCN)cc3)c2n1 [Compound 190, 6-amino-9-(4-(((4-aminobutyl)amino)methyl)benzyl)-2-(pentylamino)-9H-purin-8-ol] | 1 to 10 | 131 | 
6.1 | 263 |  | inactive | CCOc1nc(N)c2nc(O)n(Cc3ccc(CN4CCC(N)CC4)cc3F)c2n1 [Compound 153, 6-amino-9-(4-((4-aminopiperidin-1-yl)methyl)-2-fluorobenzyl)-2-ethoxy-9H-purin-8-ol] | > 10 | 39 | 
2.04 | 11.4 | 639 |  | CCOc1nc(N)c2nc(O)n(Cc3ccc(CN[C@H](CO)Cc4ccccc4)cc3OC)c2n1 [Compound 118, (S)-6-amino-2-ethoxy-9-(4-(((1-hydroxy-3-phenylpropan-2-yl)amino)methyl)-2-methoxybenzyl)-9H-purin-8-ol] | 0.1 to 1 | 1400 | 
57 | 47.7 | 154 |  | CCOc1nc(N)c2nc(O)n(Cc3ccc(CNCC(C)(C)O)cc3OC)c2n1 [Compound 101, 6-amino-2-ethoxy-9-(4-(((2-hydroxy-2-methylpropyl)amino)methyl)-2-methoxybenzyl)-9H-purin-8-ol] | 0.1 to 1 | 127 | 

Compound | EC50 (hTLR7) [nM] | EC50 (mTLR7) [nM] | EC50 (Mouse splenocytes) [nM] | Splenocyte IL6 EC50 (nM) (Mouse splenocytes) | EC50 [1, 2] [nM] | EC50 [1, 3] [nM] | PBMC IL6 EC50 (nM) ([1]; hIL6 in supernatant)
CCCCOc1nc(N)c2nc(O)n(Cc3ccc(CCCNC4CCNCC4)cc3OC)c2n1 [Compound 176, 6-amino-2-butoxy-9-(2-methoxy-4-(3-(piperidin-4-ylamino)propyl)benzyl)-9H-purin-8-ol] | < 0.1 | < 0.1 | 5.8 |  | > 10 |  | inactive
CCCCOc1nc(N)c2nc(O)n(Cc3ccc(CCCN4CCC(CCN)CC4)cc3OC)c2n1 [Compound 175, 6-amino-9-(4-(3-(4-(2-aminoethyl)piperidin-1-yl)propyl)-2-methoxybenzyl)-2-butoxy-9H-purin-8-ol] | < 0.1 | < 0.1 | 6 |  | > 10 |  | inactive
CCCCOc1nc(N)c2nc(O)n(Cc3ccc(CNC4CCC4)cc3OC)c2n1 [Compound 164, 6-amino-2-butoxy-9-(4-((cyclobutylamino)methyl)-2-methoxybenzyl)-9H-purin-8-ol] | < 0.1 | < 0.1 | 0.3 |  | < 0.1 | 2540 | 
CCCCOc1nc(N)c2nc(O)n(Cc3ccc(CCCN4CCC(N)CC4)cc3OC)c2n1 [Compound 172, 6-amino-9-(4-(3-(4-aminopiperidin-1-yl)propyl)-2-methoxybenzyl)-2-butoxy-9H-purin-8-ol] | < 0.1 | < 0.1 | 2.1 |  | > 10 |  | 
CCCCOc1nc(N)c2nc(O)n(Cc3ccc(CN4CCNCC4)cc3)c2n1 [Compound 166, 6-amino-2-butoxy-9-(4-(piperazin-1-ylmethyl)benzyl)-9H-purin-8-ol] | < 0.1 | 11 | 150 |  | > 10 | 1570 | 
